Reference: publication PMC10154249, “Unique progerin C-terminal peptide ameliorates Hutchinson–Gilford progeria syndrome phenotype by rescuing BUBR1” (Nature Aging, 2023)

Tests used:
[1] = test system: BubR1 in Lmna^G609G/G609G mice; test: IHC of BubR1 in tissues of Lmna^G609G/G609G mice; type: in vivo, mouse; design: key to BubR1 IHC score: intensity score (0-3) × positive-cell score (0-4); range 0-12; details: 20 mg kg^–1 i.p. every other day
Description: (§1) For UPCP injection, 14-day-old Lmna^G609G/G609G mice were injected intraperitoneally with either PBS or UPCP (20 mg kg^–1, every other day) and wild-type mice were injected with PBS. All phenotypic analyses were performed after 12 weeks of treatment with UPCP. Bodyweight and lifespan were monitored after UPCP treatment. The survival rate was analyzed by the Kaplan–Meier method. We only included mice that were of sufficient bodyweight at the start of the experiment, typically at least 80% of the average littermate weight of the same sex and genotype. All animals meeting criteria for inclusion were then divided randomly into three groups according to genotype (Lmna^+/+, Lmna^G609G/G609G-Mock and Lmna^G609G/G609G-UPCP).
(§2) For histological analyses, mice of the indicated genotypes were perfused with PBS, then with 4% paraformaldehyde (PFA). Whole organs were incubated in 4% PFA at 4 °C for 16 h. All samples were paraffin embedded and sectioning by Servicebio. Subsequently, the tissues were deparaffinized and rehydrated before hematoxylin-eosin (HE) or Masson staining or immunohistochemistry (IHC). HE staining was performed using an HE Kit (Absin, catalog no. abs9217), and Masson staining was performed using Masson’s Trichrome Stain Kit (Absin, catalog no. abs9347) according to the manufacturer’s instructions. The thickness of the layers or the areas of fibrosis in the tissues were calculated using ImageJ software by a blinded investigator. For IHC, the sections were completed by the Servicebio. The images were acquired by a microscope (Leica DMi8) and analyzed with Leica Application Suite X v.3.6.0.24 (Leica). For BubR1, cytoplasmic staining in cells was scored on the intensity of staining and the proportion of positive cells by a blinded investigator. The intensity of the staining was graded as 0 (negative, no color), 1 (low positive, light yellow), 2 (positive, brown yellow) or 3 (high positive, brown), and the number of positive cells was graded as 0 (<5%), 1 (5–25%), 2 (25–50%), 3 (51–75%) or 4 (>75%). The final score was defined as staining number score multiplied by staining color score. For lamin B1, p21 or IL-6, the proportion of positive cells was used to quantify the expression of protein in tissues by a blinded investigator.

BUBR1 = biological target: T1, BUBR1 (Homo sapiens, UniProt O60566); test: Pulldown assay of UPCP and BUBR1; type: binding; details: pulldown (and MST); His-UPCP 10 μg with Flag beads-BUBR1, 16 h at 4 °C
T1 construct: made in house
Description: Cells were harvested and lysed in buffer A mixed with protease inhibitor cocktail tablet (Roche) after 48 h. […] The beads were washed three times using 1× Tris saline buffer (50 mM Tris-HCl (pH 7.4) and 150 mM NaCl)) for 8 min each. The bound proteins BUBR1 or PTBP1 were eluted with 3×Flag peptide (ApexBio) for 2 h at 4 °C. Finally, BUBR1 or PTBP1 was concentrated and recovered by using the Centrifugal Filters (Amicon Ultra).
A detailed description of the pulldown assay was described previously. His-UPCP fusion protein was expression in bacteria (BL21) and induced with 0.5 mM isopropyl-β-D-thio-galactoside for 16 h at 16 °C. The bacteria were harvested and lysed in TEN buffer (20 mM Tris-HCl (pH7.4), 0.1mM EDTA, 100 mM NaCl). […] His-UPCP was eluted with Imidazole eluent (50 mM NaH2PO4, 300 mM NaCl and 50 mM Imidazole) for 2 h at 4 °C and concentrated and recovered using centrifugal filters (Amicon Ultra). For the pulldown of His-UPCP and Flag-BUBR1 or Flag-PTBP1, 10 μg His-UPCP was incubated with Flag beads (Biotool, catalog no. B23102), Flag beads-BUBR1 or Flag beads-PTBP1 respectively for 16 h at 4 °C. The beads were washed three times with PBS and added to 1× loading buffer for western blot.

[2] = test system: lamin B1, p21 and IL-6 in skin of Lmna^G609G/G609G mice; test: IHC of lamin B1, p21 and IL-6 in skin of Lmna^G609G/G609G mice; type: in vivo, mouse; details: for p21 positive cells / IL-6 positive cells / LaminB1 positive cells: LmnaG609G/G609G+UPCP; for p21 positive cells: P=0.0003 vs LmnaG609G/G609G-Mock; for IL-6 positive cells: P=0.0012 vs LmnaG609G/G609G-Mock; for LaminB1 positive cells: P=0.0142 vs LmnaG609G/G609G-Mock
Description: as §1, §2

[3] = skin, 20 mg kg^–1 i.p. every other day

T1 sequence (O60566 whole entry): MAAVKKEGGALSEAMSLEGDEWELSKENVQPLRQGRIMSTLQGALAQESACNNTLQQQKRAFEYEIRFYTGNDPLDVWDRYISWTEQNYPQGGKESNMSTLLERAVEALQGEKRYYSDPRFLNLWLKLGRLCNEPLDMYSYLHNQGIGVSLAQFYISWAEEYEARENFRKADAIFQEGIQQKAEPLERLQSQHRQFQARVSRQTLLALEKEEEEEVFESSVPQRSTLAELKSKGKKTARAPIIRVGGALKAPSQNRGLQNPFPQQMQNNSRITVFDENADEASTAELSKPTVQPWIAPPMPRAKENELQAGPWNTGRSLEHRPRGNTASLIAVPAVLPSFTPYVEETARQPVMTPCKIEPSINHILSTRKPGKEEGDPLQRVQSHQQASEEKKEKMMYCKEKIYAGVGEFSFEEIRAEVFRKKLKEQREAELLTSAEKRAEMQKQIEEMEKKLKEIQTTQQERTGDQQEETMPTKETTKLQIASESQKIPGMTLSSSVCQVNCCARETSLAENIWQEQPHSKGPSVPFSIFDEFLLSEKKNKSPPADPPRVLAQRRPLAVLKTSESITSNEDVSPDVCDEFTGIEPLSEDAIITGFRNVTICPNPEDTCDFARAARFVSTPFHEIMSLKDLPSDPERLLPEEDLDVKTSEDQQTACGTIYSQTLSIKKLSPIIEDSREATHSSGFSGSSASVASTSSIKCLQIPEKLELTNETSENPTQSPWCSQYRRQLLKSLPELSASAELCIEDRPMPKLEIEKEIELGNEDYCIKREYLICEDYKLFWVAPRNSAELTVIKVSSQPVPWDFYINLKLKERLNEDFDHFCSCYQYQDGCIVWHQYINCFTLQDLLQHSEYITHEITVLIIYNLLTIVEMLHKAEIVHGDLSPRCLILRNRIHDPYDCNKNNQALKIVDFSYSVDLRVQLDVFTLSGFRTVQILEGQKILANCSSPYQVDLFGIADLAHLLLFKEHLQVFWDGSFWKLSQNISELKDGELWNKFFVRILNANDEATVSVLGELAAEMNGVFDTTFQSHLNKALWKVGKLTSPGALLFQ

Substance: H-YGRKKRRQRRRYNLRSRTVLCGTCGQPADKASASGSGAQSPQNCSIM-OH (cysteines drawn unpaired) [UPCP, unique progerin C-terminal peptide]
- BubR1 IHC score ([1]; aorta, No. 1): 7
- BubR1 IHC score ([1]; aorta, No. 2): 8.4
- BubR1 IHC score ([1]; aorta, No. 3): 12
- BubR1 IHC score ([1]; aorta, No. 4): 8.6
- BubR1 IHC score ([1]; aorta, No. 5): 8
- BubR1 IHC score ([1]; aorta, No. 6): 6
- BubR1 IHC score ([1]; lung, No. 1): 1
- BubR1 IHC score ([1]; lung, No. 2): 2
- BubR1 IHC score ([1]; lung, No. 3): 2.4
- BubR1 IHC score ([1]; lung, No. 4): 1.2
- BubR1 IHC score ([1]; lung, No. 5): 1.4
- BubR1 IHC score ([1]; lung, No. 6): 1.2
- BubR1 IHC score ([1]; skin, No. 1): 10.4
- BubR1 IHC score ([1]; skin, No. 2): 8
- BubR1 IHC score ([1]; skin, No. 3): 5.6
- BubR1 IHC score ([1]; skin, No. 4): 7.2
- BubR1 IHC score ([1]; skin, No. 5): 12
- BubR1 IHC score ([1]; skin, No. 6): 12
- BubR1 expression ([1]; skin, esophagus, lung and spleen): increased the expression of BubR1
- BubR1 IHC score ([1]; spleen, No. 1): 7.6
- BubR1 IHC score ([1]; spleen, No. 2): 6.8
- BubR1 IHC score ([1]; spleen, No. 3): 6
- BubR1 IHC score ([1]; spleen, No. 4): 7.8
- BubR1 IHC score ([1]; spleen, No. 5): 7.6
- BubR1 IHC score ([1]; spleen, No. 6): 7.2
- direct combination with BUBR1 (BUBR1): could combine with BUBR1 directly in vitro
- p21 positive cells ([2]; replicate 1): 0.2237
- IL-6 positive cells ([2]; replicate 1): 0.4348
- LaminB1 positive cells ([2]; replicate 1): 0.5254
- p21 positive cells ([2]; replicate 2): 0.3636
- IL-6 positive cells ([2]; replicate 2): 0.5192
- LaminB1 positive cells ([2]; replicate 2): 0.7647
- p21 positive cells ([2]; replicate 3): 0.2043
- IL-6 positive cells ([2]; replicate 3): 0.5517
- LaminB1 positive cells ([2]; replicate 3): 0.3729
- p21 positive cells ([2]; replicate 4): 0.2308
- IL-6 positive cells ([2]; replicate 4): 0.5702
- LaminB1 positive cells ([2]; replicate 4): 0.6429
- p21 positive cells ([2]; replicate 5): 0.3175
- IL-6 positive cells ([2]; replicate 5): 0.5897
- LaminB1 positive cells ([2]; replicate 5): 0.6739
- p21 positive cells ([2]; replicate 6): 0.1875
- IL-6 positive cells ([2]; replicate 6): 0.375
- LaminB1 positive cells ([2]; replicate 6): 0.598
- number of lamin B1 positive cells [2, 3]: increase the number of lamin B1 positive cells
- p21 and IL-6 expression [2, 3]: reduce p21 and IL-6 expression in the skin
